# From PubChem BioAssay AID328 (DTP/NCI, 2004)
# Several values for one entry are separate records, joined by “and”; a condition that tells them apart may be missing. Equal values may be shown once. Toxic doses and inconclusive results are not listed.
# System: BDF1 mice, P388 leukemia ip, median survival T/C
# Assay: NCI In Vivo Anticancer Drug Screen. Data for tumor model P388 Leukemia (intraperitoneal) in B6D2F1 (BDF1) mice
# Conditions: endpoint: median survival time, higher = longer survival
# Method in brief: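 Each value expresses how treatment altered survival: treated-mouse outcome over vehicle-mouse outcome, both groups bearing the transplanted tumour.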
# [1] = dose: 100.0 mg/kg/injection, schedule: Q01DX009 (ip), vehicle: saline with Tween-80
# [2] = dose: 200.0 mg/kg/injection, schedule: Q01DX009 (ip), vehicle: saline with Tween-80
# [3] = dose: 25.0 mg/kg/injection, schedule: Q04DX003 (ip), vehicle: Klucel (hydroxypropylcellulose) (HPC)
structure (smiles),measurement,setting,value
CCCCC1C(=O)OC(C(C)C(O)CCCN=C(N)N)C(C)C=C(C)CCCCC(O)CC(O)CC(O)CC(O)CC(O)C(OC2OC(CO)C(O)C2O)C=C(C)C(O)CCCC(O)CCCC(O)CCC(C)C1O (stereo not given),T/C,"dose: 0.3 mg/kg/injection, schedule: Q01DX010 (ip), vehicle: carboxymethylcellulose (CMC)",90 % of control
same,T/C,"dose: 0.6 mg/kg/injection, schedule: Q01DX010 (ip), vehicle: carboxymethylcellulose (CMC)",90 % of control
same,T/C,"dose: 1.2 mg/kg/injection, schedule: Q01DX010 (ip), vehicle: carboxymethylcellulose (CMC)",95 % of control
same,T/C,"dose: 2.5 mg/kg/injection, schedule: Q01DX010 (ip), vehicle: carboxymethylcellulose (CMC)",90 % of control
CC(=O)/C=C/c1ccco1,T/C,"dose: 25.0 mg/kg/injection, schedule: Q01DX009 (ip), vehicle: DMSO",91 % of control
same,T/C,"dose: 25.0 mg/kg/injection, schedule: Q04DX003 (ip), vehicle: DMSO",107 % of control
same,T/C,"dose: 50.0 mg/kg/injection, schedule: Q01DX009 (ip), vehicle: DMSO",91 % of control
same,T/C,"dose: 50.0 mg/kg/injection, schedule: Q04DX003 (ip), vehicle: DMSO",92 % of control
O=[N+]([O-])c1ccc(SCc2ccccc2)c2c1no[n+]2[O-],T/C,"dose: 15.0 mg/kg/injection, schedule: Q01DX009 (ip), vehicle: saline with Tween-80",105 % of control
same,T/C,"dose: 30.0 mg/kg/injection, schedule: Q01DX009 (ip), vehicle: saline with Tween-80",96 % of control
same,T/C,"dose: 60.0 mg/kg/injection, schedule: Q01DX009 (ip), vehicle: saline with Tween-80",93 % of control
O=P(N1CC1)(N1CC1)N1CCc2ccccc21,T/C,"dose: 9.0 mg/kg/injection, schedule: Q01DX009 (ip), vehicle: saline",91 % of control
same,T/C,"dose: 13.0 mg/kg/injection, schedule: Q01DX009 (ip), vehicle: saline",104 % of control
same,T/C,"dose: 20.0 mg/kg/injection, schedule: Q01DX009 (ip), vehicle: saline",104 % of control
same,T/C,"dose: 30.0 mg/kg/injection, schedule: Q04DX003 (ip), vehicle: saline",114 % of control
same,T/C,"dose: 33.0 mg/kg/injection, schedule: Q01DX009 (ip), vehicle: saline",157 % of control
same,T/C,"dose: 44.0 mg/kg/injection, schedule: Q04DX003 (ip), vehicle: saline",117 % of control and 119 % of control
same,T/C,"dose: 50.0 mg/kg/injection, schedule: Q01DX009 (ip), vehicle: saline",166 % of control and 173 % of control
same,T/C,"dose: 75.0 mg/kg/injection, schedule: Q01DX009 (ip), vehicle: saline",176 % of control
same,T/C,"dose: 100.0 mg/kg/injection, schedule: Q04DX003 (ip), vehicle: saline",170 % of control and 176 % of control
same,T/C,"dose: 150.0 mg/kg/injection, schedule: Q04DX003 (ip), vehicle: saline",255 % of control and 195 % of control
same,T/C,"dose: 200.0 mg/kg/injection, schedule: Q04DX003 (ip), vehicle: saline",96 % of control
CN(C)C(=O)c1cccc(NC(=O)Oc2ccccc2)c1,T/C,[1],90 % of control
same,T/C,[2],95 % of control
C=C1N(C)c2ccccc2C1(C)C,T/C,"dose: 1.47 mg/kg/injection, schedule: Q01DX009 (ip), vehicle: saline with Tween-80",104 % of control
same,T/C,"dose: 2.95 mg/kg/injection, schedule: Q01DX009 (ip), vehicle: saline with Tween-80",118 % of control
same,T/C,"dose: 5.9 mg/kg/injection, schedule: Q01DX009 (ip), vehicle: saline with Tween-80",122 % of control
CC1=CC(=O)c2c(O)cc(C)c(C(=O)C(Cl)Cl)c2C1=O,T/C,"dose: 10.0 mg/kg/injection, schedule: Q01DX009 (ip), vehicle: Klucel (hydroxypropylcellulose) (HPC)",112 % of control
same,T/C,"dose: 20.0 mg/kg/injection, schedule: Q01DX009 (ip), vehicle: Klucel (hydroxypropylcellulose) (HPC)",112 % of control
ON=C(CSCc1ccccc1)CSCc1ccccc1,T/C,"dose: 50.0 mg/kg/injection, schedule: Q04DX003 (ip), vehicle: saline with Tween-80",99 % of control
same,T/C,"dose: 100.0 mg/kg/injection, schedule: Q04DX003 (ip), vehicle: saline with Tween-80",103 % of control
same,T/C,"dose: 200.0 mg/kg/injection, schedule: Q04DX003 (ip), vehicle: saline with Tween-80",88 % of control
same,T/C,"dose: 400.0 mg/kg/injection, schedule: Q04DX003 (ip), vehicle: saline with Tween-80",95 % of control
O=C1NCCN1c1cccc([N+](=O)[O-])c1,T/C,[3],100 % of control
same,T/C,"dose: 50.0 mg/kg/injection, schedule: Q04DX003 (ip), vehicle: Klucel (hydroxypropylcellulose) (HPC)",100 % of control
CCOC(=O)Sc1ncnc2nc[nH]c12,T/C,[1],109 % of control
same,T/C,[2],90 % of control
Clc1ccc(C2c3ccccc3C[n+]3ccccc32)cc1 (stereo not given),T/C,"dose: 8.75 mg/kg/injection, schedule: Q01DX009 (ip), vehicle: Klucel (hydroxypropylcellulose) (HPC)",113 % of control
same,T/C,"dose: 12.5 mg/kg/injection, schedule: Q04DX003 (ip), vehicle: Klucel (hydroxypropylcellulose) (HPC)",95 % of control
same,T/C,"dose: 17.5 mg/kg/injection, schedule: Q01DX009 (ip), vehicle: Klucel (hydroxypropylcellulose) (HPC)",109 % of control
same,T/C,[3],91 % of control
CCCCCCCCCCOP(=O)(O)OCCCCCCCCCC,T/C,"dose: 12.5 mg/kg/injection, schedule: Q01DX009 (ip), vehicle: Klucel (hydroxypropylcellulose) (HPC)",95 % of control
same,T/C,"dose: 25.0 mg/kg/injection, schedule: Q01DX009 (ip), vehicle: Klucel (hydroxypropylcellulose) (HPC)",99 % of control
same,T/C,"dose: 50.0 mg/kg/injection, schedule: Q01DX009 (ip), vehicle: Klucel (hydroxypropylcellulose) (HPC)",95 % of control
COc1ccc(CC2c3cc(OC)c(OC)cc3CCN2C)cc1OC (stereo not given),T/C,"dose: 50.0 mg/kg/injection, schedule: Q01DX005 (ip), vehicle: saline with Tween-80",90 % of control
